Where two headings read alike, the source gives them in different places.
Tests used:
[1] = target: p38α activated, mitogen-activated protein kinase-activated protein kinase 2 (MAPKAP-K2 or MK2) enzyme (Homo sapiens (Human), UniProt P49137); experiment: MK2 Omnia continuous-read kinase assay for compound potency; format: biochemical
Text: Mitogen-Activated Protein Kinase-Activated Protein Kinase 2 Omnia® Assay for Compound Potency Assessment:
The protocol below describes a continuous-read kinase assay optimized to measure potency of compounds against p38α activated, mitogen-activated protein kinase-activated protein kinase 2 (MAPKAP-K2 or MK2) enzyme. Further details of this assay are described by Life Technologies, Carlsbad, Calif. on their website at the following URL: http://tools.lifetechnologies.com/content/sfs/manuals/omnia_kinase_assay_man.pdf.
[Reagent] used: • [MK-2]=0.4 nM, • [ATP]=10 μM and • [ST3-Sox]=10 μM (ATP^appKM=10 μM)
Kinase reactions were started with the addition of 45 μL of the ATP-peptide substrate S/T3-Sox mix and monitored every 71 seconds for 120 minutes at λex360/λem485 in a Synergy H4 plate reader from BioTek (Winooski, Vt.) at room temperature.
Background signals from the no enzyme control wells were subtracted from all progress curves. The initial linear portions of the net progress curves were fit according to a linear equation to yield the slope and percentage of inhibition (% inhibition) at each compound concentration. The net progress curves obtained during the first two hours of reactions were also fit according to an ascending single-exponential equation (Eq. 1) to yield kobs values at each compound concentration. Plots of % Inhibition versus inhibitor concentrations were fit according to a dose-response equation (Eq. 2) to generate IC50 and Hill slope values while plots of kobs versus inhibitor concentration were fit according to Equation 3 (Eq. 3) to generate apparent kinact/KI values using the GraphPad PRISM software (Version 6.00; GraphPad San Diego, Calif.).
[formula] where F is the fluorescence intensity from the plate reader, V0 is a constant reflecting the relationship between the instrument readout and product concentration, t is time, e is Euler's number, and kobs is the observed inactivation rate constant.
[formula] where % Inhibition is percentage of inhibition, IC50 is half maximal inhibitory concentration, [I] is the inhibitor concentration, and n is the Hill slope.

MK2 [2] = target: T1, MK2 (Homo sapiens (Human), UniProt P49137); experiment: MK2 cellular assay, total and phospho-Hsp27 (Serine 78) by MSD ELISA (Thp1); format: cell-based
Method: MK2 Cellular Assay—Detection of Total and Phospho-Hsp27 (Serine 78) by MSD ELISA (Thp1)
Compounds of the invention were assayed in Thp-1 human acute monocytic leukemia cells to measure inhibition of MK2 activity. Thp-1 cells were grown in culture medium containing RPMI/10% FBS (fetal bovine serum)/0.05 mM 2-mercaptoethanol. 72 hours prior to the assay, 8×10^4 cells per well were plated in a 96 well flat bottom plate along with 10 ng/mL phorbol 12-myristate 13-acetate (PMA). Cells were cultured in an incubator at 37° C. until needed for the assay. Cell plate media was replaced with culture media just prior to assay while compound dilutions were being made.
Stock solutions of test compound, 1 mM in DMSO, were prepared. 0.9 μl of test compound was added to 300 μl cell media for a starting concentration of 3000 nM. […] Cell plate media was discarded, followed by addition of 100 μl of the compound containing media. The resulting preparation was incubated at 37° C. for 1 hour.
Test compound-containing cell assay media was removed and the cells were washed once with cell assay media. Cell assay media containing 50 ng/mL LPS (lipopolysaccharide) was added to the each well and incubated for 45 minutes. Following LPS incubation, the cells were washed once with PBS (phosphate-buffered saline) and lysed with 60 μl Cell Extraction Buffer (Invitrogen #FNN0011) plus protease and phosphatase inhibitors. The plate was then stored at −80° C. until further analysis.
The MULTI-SPOT Phospho(Ser78)/Total HSP27 ELISA Assay kit was purchased from Meso Scale […] (MSD; catalog #K15128D). […] The pre-coated MSD plate was blocked with 150 μL/well of 3% BSA in MSD wash buffer. The preparation was placed on a shaker at room temperature for an hour. While the ELISA plate was blocked, the cell assay plate stored at −80° C. was placed on a shaker at 4° C. for 1 hour to thaw.
The blocked MSD plate was washed on a plate washer, tapping out the last bit of wash solution, followed by addition of 30 μl of the lysate from the cell assay plate. The preparation was covered and incubated for 1 hour at room temperature. The lysate was removed, the plate was washed 3 times on a plate washer and the last bit of wash buffer was tapped out and replaced with 25 μl/well detection antibody (anti-total HSP27 conjugated with an electrochemiluminescent compound, MSD SULFO-TAG label, supplied in kit) made in 1% BSA/MSD wash buffer. The plate was incubated for 1 hour at room temperature on a shaker, followed by 3 washes. The last bit of wash buffer was tapped out. 150 μl/well 1×MSD read buffer was added (4× read buffer supplied with kit) and the plate was analyzed on the MSD SECTOR® Imager for analysis. The SECTOR® Imager measures intensity of emitted light to provide a quantitative measure of phosphorylated HSP27 (Ser78) and total HSP27 present in the sample. The relative percent phosphoprotein in a sample is calculated by dividing the Phospho-HSP27 signal intensity over the total HSP27 signal intensity measured in each well.

MK2 [3] = target: T1, MK2
Method: Aliquots of the resulting mixture (6 μL each) were diluted with 0.2% trifluoroacetic acid (TFA, 10 μL) prior to micro C4 ZipTipping directly onto the MALDI target using sinapinic acid as the desorption matrix (10 mg/ml in 0.1% TFA:acetonitrile 50:50, v/v). The centroid mass of the target protein in the control sample was compared with the centroid mass of the target protein incubated with compound. A shift in the centroid mass of the treated protein compared to the untreated protein was divided by the molecular weight of the compound. This number corresponds to the percentage of modified protein (a measure of the proportion of total target protein covalently bound to the test compound) after one hour incubation.
3 μL of magnetic Ni-NTA beads were added to the 6 μL aliquots of sample, washed, eluted with 0.2% trifluoroacetic acid (TFA, 2 μL), and spotted directly onto the MALDI target using sinapinic acid as the desorption matrix (10 mg/ml in 0.1% TFA:acetonitrile 50:50, v/v). The centroid mass of the target protein in the control sample was compared with the centroid mass of the target protein incubated with compound. A shift in the centroid mass of the treated protein compared to the untreated protein was divided by the molecular weight of the compound. This number corresponds to the percentage of modified protein (a measure of the proportion of total target protein covalently bound to the test compound) after one hour incubation.

[4] = [MK-2]=0.4 nM, [ATP]=10 μM, [ST3-Sox]=10 μM, read-out: MK2 IC50
[5] = Thp-1 cells, 1 hour compound, 50 ng/mL LPS 45 minutes, p-HSP27 (Ser78)/total HSP27, read-out: pHSP27 signaling EC50
[6] = percentage of modified protein after 60 minutes at room temperature, 10-fold excess of compound, MALDI (I-1 to I-50), magnetic bead MALDI (I-51 to I-129)
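Throughout, for Mass Modification: covalent binding read from centroid mass shift of compound-treated versus untreated intact MK2, shift divided by compound molecular weight, giving fraction of total protein bound.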

Sequence of p38α activated, mitogen-activated protein kinase-activated protein kinase 2 (MAPKAP-K2 or MK2) enzyme (P49137 whole entry): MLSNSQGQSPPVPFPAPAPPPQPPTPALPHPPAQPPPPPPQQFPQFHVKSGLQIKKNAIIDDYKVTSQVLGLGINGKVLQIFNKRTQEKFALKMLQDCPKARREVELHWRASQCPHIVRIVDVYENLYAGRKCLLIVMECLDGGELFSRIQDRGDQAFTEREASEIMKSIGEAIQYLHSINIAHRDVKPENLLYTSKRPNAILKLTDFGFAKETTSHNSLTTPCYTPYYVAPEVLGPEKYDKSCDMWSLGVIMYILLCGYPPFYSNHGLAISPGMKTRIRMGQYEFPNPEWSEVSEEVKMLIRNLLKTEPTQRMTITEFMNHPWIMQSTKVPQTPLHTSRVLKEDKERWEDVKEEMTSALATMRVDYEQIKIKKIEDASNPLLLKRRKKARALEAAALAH
T1 sequence (P49137 whole entry): as above

Row | IC50 [1] | EC50 (MK2 [2]) | SMILES | IC50 [1, 4] | EC50 (MK2 [2]; [5]) | Mass Modification (MK2 [3]; [6]) | IC50 ([1]; read-out: MK2 IC50) | Mass Modification (MK2 [3])
1 | – | – | O=C1N[C@H](CO)CNc2c1sc1ccc3nc(Nc4cc(F)ncn4)ccc3c21 [I-17, (S)-3-((6-fluoropyrimidin-4-yl)amino)-10-(hydroxymethyl)-9,10,11,12-tetrahydro-8H-[1,4]diazepino[5′,6′:4,5]thieno[3,2-f]quinolin-8-one] | < 100 nM | > 1000 nM | F (mass modification of 31-69%) | – | –
2 | – | – | CCOC(=O)c1cnc(Cl)nc1Nc1ccc2c(ccc3sc4c(c32)NC[C@@H](C)NC4=O)n1 [I-18, (R)-ethyl 2-chloro-4-((10-methyl-8-oxo-9,10,11,12-tetrahydro-8H-[1,4]diazepino[5′,6′:4,5]thieno[3,2-f]quinolin-3-yl)amino)pyrimidine-5-carboxylate] | < 100 nM | 101 to 500 nM | F (mass modification of 31-69%) | – | –
3 | – | – | O=C1N[C@H](CO)CNc2c1sc1ccc3nc(Nc4cc(Cl)ncn4)ccc3c21 [I-22, (S)-3-((6-chloropyrimidin-4-yl)amino)-10-(hydroxymethyl)-9,10,11,12-tetrahydro-8H-[1,4]diazepino[5′,6′:4,5]thieno[3,2-f]quinolin-8-one] | < 100 nM | 501 to 999 nM | F (mass modification of 31-69%) | – | –
4 | – | – | C[C@@H]1CNc2c(sc3ccc4nc(Nc5nc(Cl)ncc5C(=O)N5CC[C@@H](N(C)C)C5)ccc4c23)C(=O)N1 [I-24, (R)-3-((2-chloro-5-((R)-3-(dimethylamino)pyrrolidine-1-carbonyl)pyrimidin-4-yl)amino)-10-methyl-9,10,11,12-tetrahydro-8H-[1,4]diazepino[5′,6′:4,5]thieno[3,2-f]quinolin-8-one] | 501 to 999 nM | > 1000 nM | G (mass modification ≦30%) | – | –
5 | – | – | C[C@@H]1CNc2c(sc3ccc4nc(Nc5cc(Cl)ncc5C#N)ccc4c23)C(=O)N1 [I-25, (R)-6-chloro-4-((10-methyl-8-oxo-9,10,11,12-tetrahydro-8H-[1,4]diazepino[5′,6′:4,5]thieno[3,2-f]quinolin-3-yl)amino)nicotinonitrile] | – | < 100 nM | – | < 100 nM | F (key: E: mass modification of ≧70%; F: mass modification of 31-69%; G: mass modification ≦30%)
6 | – | – | NC[C@@H]1CNc2c(sc3ccc4nc(Nc5cc(F)ncn5)ccc4c23)C(=O)N1 [I-26, (R)-10-(aminomethyl)-3-((6-fluoropyrimidin-4-yl)amino)-9,10,11,12-tetrahydro-8H-[1,4]diazepino[5′,6′:4,5]thieno[3,2-f]quinolin-8-one] | < 100 nM | > 1000 nM | E (mass modification of ≧70%) | – | –
7 | – | – | C[C@@H]1CNc2c(sc3ccc4nc(Nc5cc(F)ncc5C#N)ccc4c23)C(=O)N1 [I-27, (R)-6-fluoro-4-((10-methyl-8-oxo-9,10,11,12-tetrahydro-8H-[1,4]diazepino[5′,6′:4,5]thieno[3,2-f]quinolin-3-yl)amino)nicotinonitrile] | < 100 nM | < 100 nM | G (mass modification ≦30%) | – | –
8 | – | – | NC[C@@H]1CNc2c(sc3ccc4nc(Nc5cc(Cl)ncn5)ccc4c23)C(=O)N1 [I-28, (R)-10-(aminomethyl)-3-((6-chloropyrimidin-4-yl)amino)-9,10,11,12-tetrahydro-8H-[1,4]diazepino[5′,6′:4,5]thieno[3,2-f]quinolin-8-one] | < 100 nM | > 1000 nM | E (mass modification of ≧70%) | – | –
9 | – | – | C[C@@H]1CNc2c(sc3ccc4nc(Nc5cc(F)ncc5C(N)=O)ccc4c23)C(=O)N1 [I-29, (R)-6-fluoro-4-((10-methyl-8-oxo-9,10,11,12-tetrahydro-8H-[1,4]diazepino[5′,6′:4,5]thieno[3,2-f]quinolin-3-yl)amino)nicotinamide] | < 100 nM | > 1000 nM | G (mass modification ≦30%) | – | –
10 | – | – | NC(=O)c1cnc(Cl)nc1Nc1ccc2c(ccc3sc4c(c32)NC[C@@H](CO)NC4=O)n1 [I-30, (S)0-2-chloro-4-((10-(hydroxymethyl)-8-oxo-9,10,11,12-tetrahydro-8H-[1,4]diazepino[5′,6′:4,5]thieno[3,2-f]quinolin-3-yl)amino)pyrimidine-5-carboxamide] | < 100 nM | 101 to 500 nM | E (mass modification of ≧70%) | – | –
11 | 501 to 999 nM | > 1000 nM | C[C@@H]1CNc2c(sc3ccc4nc(N(CCN(C)C)c5cc(F)ncn5)ccc4c23)C(=O)N1 [I-33, (R)-3-((2-(dimethylamino)ethyl)(6-fluoropyrimidin-4-yl)amino)-10-methyl-9,10,11,12-tetrahydro-8H-[1,4]diazepino[5′,6′:4,5]thieno[3,2-f]quinolin-8-one] | – | – | F (mass modification of 31-69%) | – | –
12 | – | – | C[C@@H]1CNc2c(sc3ccc4nc(N(C)c5nc(Cl)ncc5C(N)=O)ccc4c23)C(=O)N1 [I-34, (R)-2-chloro-4-(methyl(10-methyl-8-oxo-9,10,11,12-tetrahydro-8H-[1,4]diazepino[5′,6′:4,5]thieno[3,2-f]quinolin-3-yl)amino)pyrimidine-5-carboxamide] | 501 to 999 nM | > 1000 nM | G (mass modification ≦30%) | – | –
13 | – | – | CNC[C@@H]1CNc2c(sc3ccc4nc(Nc5cc(F)ncn5)ccc4c23)C(=O)N1 [I-35] | 101 to 500 nM | 501 to 999 nM | F (mass modification of 31-69%) | – | –
14 | – | > 1000 nM | C[C@@H]1CNc2c(sc3ccc4nc(N(C)c5cc(F)ncn5)ccc4c23)C(=O)N1 [I-38, (R)-3-((6-fluoropyrimidin-4-yl)(methyl)amino)-10-methyl-9,10,11,12-tetrahydro-8H-[1,4]diazepino[5′,6′:4,5]thieno[3,2-f]quinolin-8-one] | < 100 nM | – | G (mass modification ≦30%) | – | –
15 | – | 501 to 999 nM | C[C@@H]1CNc2c(sc3ccc4nc(Nc5nc(F)cc(OC6COC6)n5)ccc4c23)C(=O)N1 [I-42, (R)-3-((4-fluoro-6-(oxetan-3-yloxy)pyrimidin-2-yl)amino)-10-methyl-9,10,11,12-tetrahydro-8H-[1,4]diazepino[5′,6′:4,5]thieno[3,2-f]quinolin-8-one] | < 100 nM | – | G (mass modification ≦30%) | – | –
